Assay results as given in patent US20230301981A1, “TLR7/8 ANTAGONISTS AND USES THEREOF” (Merck Patent GmbH, priority 2020, published 2023).

What was measured:
Format in all cases: cell-based
TLR7 [1] = biological target: T1, TLR7 (Homo sapiens, UniProt Q9NYK1); experiment: HEK293 TLR7/NFKb reporter cell assay with R848 agonist; parameters: expressed in transfected cells; host or cells: HEK293
T1 sequence (Q9NYK1 27-1049): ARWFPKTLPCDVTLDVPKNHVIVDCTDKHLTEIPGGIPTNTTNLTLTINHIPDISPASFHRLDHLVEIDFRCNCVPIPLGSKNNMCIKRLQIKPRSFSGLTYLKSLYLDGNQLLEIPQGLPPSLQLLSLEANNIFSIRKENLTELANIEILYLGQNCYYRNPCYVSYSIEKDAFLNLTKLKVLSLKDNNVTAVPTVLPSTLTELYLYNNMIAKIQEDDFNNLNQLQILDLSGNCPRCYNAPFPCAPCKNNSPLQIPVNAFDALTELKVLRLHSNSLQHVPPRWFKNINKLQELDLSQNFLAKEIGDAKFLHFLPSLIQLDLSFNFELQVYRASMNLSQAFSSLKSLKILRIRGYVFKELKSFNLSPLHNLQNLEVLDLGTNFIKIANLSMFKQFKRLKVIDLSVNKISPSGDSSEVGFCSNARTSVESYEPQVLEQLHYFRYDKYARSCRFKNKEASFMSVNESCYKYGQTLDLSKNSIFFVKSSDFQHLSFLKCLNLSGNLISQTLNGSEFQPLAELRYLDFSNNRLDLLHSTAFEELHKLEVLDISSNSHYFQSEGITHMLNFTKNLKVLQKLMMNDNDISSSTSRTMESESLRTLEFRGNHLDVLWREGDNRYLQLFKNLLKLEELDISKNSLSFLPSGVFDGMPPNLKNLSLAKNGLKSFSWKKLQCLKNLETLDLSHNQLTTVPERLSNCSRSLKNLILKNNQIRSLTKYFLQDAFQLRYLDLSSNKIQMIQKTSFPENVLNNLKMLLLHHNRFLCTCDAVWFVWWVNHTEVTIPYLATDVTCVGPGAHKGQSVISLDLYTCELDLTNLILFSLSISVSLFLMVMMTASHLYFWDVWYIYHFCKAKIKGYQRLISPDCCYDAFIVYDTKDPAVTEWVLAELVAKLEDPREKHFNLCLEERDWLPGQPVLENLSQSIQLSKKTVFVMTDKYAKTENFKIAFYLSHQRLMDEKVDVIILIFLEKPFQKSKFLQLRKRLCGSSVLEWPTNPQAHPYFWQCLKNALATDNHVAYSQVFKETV
Description: Into 384 CulturePlates (Corning 3707) was placed 5000 c/w of HEK293 TLR7/NFKb reporter cells in 30 µL DMEM without phenol red and 10% i.a. FCS and 2 mM L-glutamine. The cells were incubated for 24 h at 37° C., 10% carbon dioxide and 90% relative humidity. 3 µL of controls, standards, and compounds were dispensed to wells, incubated for 30 min then 3 µL of R848 agonist (Resiquimod) in 20 mM HEPES buffer was added. After incubation for 5 hours, it was allowed to stand at room temperature for 15 min. 10 µL of Steady-Glo substrate reagent was added and assay plates were shaken for 5 min at 1500 rpm. The assay plate was allowed to sit for 30 min at room temperature and then read on an EnVision plate reader.

TLR7 [2] = biological target: T1, TLR7; experiment: Human whole blood assay, TLR7-specific agonist stimulation, IL-6 by AlphaLISA; parameters: Human whole blood from healthy donors was drawn into EDTA Vacutainer tubes; endogenous in cells; host or cells: human whole blood (healthy donors); conditions: TLR7-specific agonist 3 µM, IL-6 readout, read-out: IC50 TLR7 (IL6 READOUT) HUMAN WHOLE BLOOD (N=2)
Description: (§1) Human whole blood from healthy donors was drawn into EDTA Vacutainer tubes and the experiment started within 2 hr of draw. Four parts blood was diluted with 1 part PBS. 10 mM compounds stock solutions were serially diluted 1:3 eleven times in DMSO. Each serial dilution was further diluted by transferring 3 µl to 100 µl RPMI. For the stimulation only and no stimulation controls, 3 µl 100% DMSO was transferred to 100 µl RPMI. Then, 5 µl of each of these dilutions were transferred to 96-well tissue culture grade U-bottom plate in triplicate for each ligand and each donor. Final inhibitor concentrations were 10, 3.3, 1.1, 0.37, 0.12, 0.04, 0.014, 0.0046, 0.0015, 0.00051, 0.00017, 0.00006 µM. No inhibitor (stimulation only) controls were included in triplicate for each donor. Diluted blood was dispensed on top of inhibitor dilutions at 150 µl/well. Plates were incubated at 37° C. 5% CO2 for 30 min. For TLR7 stimulation, 10 mM stock of a TLR7-specific small molecule agonist in DMSO was diluted to 90 µM in RPMI and 5 µl were added to each inhibitor dilution for each donor. Final concentration was 3 µM. For TLR8 stimulation, 10 mM stock of a TLR8-specific small molecule agonist in DMSO was diluted to 15 µM in RPMI and 5 µl were added to each inhibitor dilution for each donor. Final concentration was 0.5 µM. No stimulation controls were included in triplicate for each donor. Plates were incubated at 37° C. 5% CO2 overnight. Next day, plasma was collected and IL-6 was measured by AlphaLISA (PerkinElmer AL223 according to manufacturer’s protocol.

TLR8 = biological target: T2, TLR8 (Homo sapiens, UniProt Q9NR97); experiment: Human whole blood assay, TLR8-specific agonist stimulation, IL-6 by AlphaLISA; conditions: TLR8-specific agonist 0.5 µM, IL-6 readout, read-out: IC50 TLR8 (IL6 READOUT) HUMAN WHOLE BLOOD (N=2)
T2 construct: Human whole blood from healthy donors was drawn into EDTA Vacutainer tubes; endogenous in cells; host or cells: human whole blood (healthy donors)
T2 sequence (Q9NR97 27-1041): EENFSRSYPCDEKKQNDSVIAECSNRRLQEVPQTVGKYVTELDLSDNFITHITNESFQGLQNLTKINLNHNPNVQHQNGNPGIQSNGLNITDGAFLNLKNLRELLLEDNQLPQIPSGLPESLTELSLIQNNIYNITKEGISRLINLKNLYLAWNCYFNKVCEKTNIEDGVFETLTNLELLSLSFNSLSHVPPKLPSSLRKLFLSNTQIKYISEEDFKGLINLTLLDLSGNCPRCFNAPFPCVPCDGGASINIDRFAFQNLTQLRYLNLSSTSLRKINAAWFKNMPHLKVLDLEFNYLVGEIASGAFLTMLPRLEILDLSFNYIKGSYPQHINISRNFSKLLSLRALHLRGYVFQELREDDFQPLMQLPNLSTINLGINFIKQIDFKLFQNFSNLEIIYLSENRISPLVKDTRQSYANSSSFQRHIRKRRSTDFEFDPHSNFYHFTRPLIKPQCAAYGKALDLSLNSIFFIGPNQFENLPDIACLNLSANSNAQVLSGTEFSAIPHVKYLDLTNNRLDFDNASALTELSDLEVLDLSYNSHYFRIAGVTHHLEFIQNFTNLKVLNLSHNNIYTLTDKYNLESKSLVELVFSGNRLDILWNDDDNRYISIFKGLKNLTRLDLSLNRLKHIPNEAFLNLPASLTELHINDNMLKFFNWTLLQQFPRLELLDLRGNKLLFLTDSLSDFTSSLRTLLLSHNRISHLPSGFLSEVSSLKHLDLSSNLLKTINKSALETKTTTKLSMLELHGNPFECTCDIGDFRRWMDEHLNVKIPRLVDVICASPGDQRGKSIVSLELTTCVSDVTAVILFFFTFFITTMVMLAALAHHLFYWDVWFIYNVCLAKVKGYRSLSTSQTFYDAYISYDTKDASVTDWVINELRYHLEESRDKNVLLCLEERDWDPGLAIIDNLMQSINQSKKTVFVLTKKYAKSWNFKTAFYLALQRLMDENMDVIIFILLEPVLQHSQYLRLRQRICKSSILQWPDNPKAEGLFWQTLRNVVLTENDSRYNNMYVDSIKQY
Description: as §1

[3] = Example 4 results table, assay/readout not specified, read-out: Potency
[4] = HEK293 TLR7/NFKb reporter cells, R848 agonist, read-out: IC50 TLR7 (IL6 READOUT) HEK TRANSFECTED

IC50 (TLR7 [1]; [3]) [nM]	IC50 (TLR7 [1]; [4]) [nM]	IC50 (TLR7 [2]) [nM]	IC50 (TLR8) [nM]	SMILES
< 1000	4590			Oc1c(CN2CCCC2)cc(Nc2ccnc3cc(Cl)ccc23)cc1CN1CCCC1 [Compound 3, BISPYROQUINE]
		2280	53300	CCN(CC)CCCC(C)Nc1ccnc2cc(Cl)ccc12 (stereo not shown) [CHLOROQUINE, Chloroquine]
< 1000	1390			CCN(CC)Cc1cc(Nc2ccnc3cc(Cl)ccc23)cc(CN(CC)CC)c1O [Compound 2, CYCLOQUINE]
	> 10000			CCN(CC)Cc1cc(Nc2ccnc3cc(Cl)ccc23)ccc1O [AMODIAQUINE]
